US11643421B2, “Process for the preparation of tricyclic PI3K inhibitor compounds and methods for using the same for the treatment of cancer” (priority 2015, dated 2023)

Assay: MALDI imaging of brain distribution, U87 orthotopic model
Format: in vivo, female nude mice
Conditions: re-analysis of previously obtained images (Salphati et al. 2014)
Experimental: Mice were euthanized at 1 and 6 hours post-dose via exsanguination by perfusion under anesthesia. Brains were excised, flash frozen in liquid N2 and stored in a −80° C. freezer until analyzed. Fresh frozen tissue sections were obtained on a cryomicrotome (Leica CM3050S, Buffalo Grove, Ill.) at 12 μm thickness and thaw-mounted onto indium tin oxide coated glass slides (Bruker Daltonics, Billerica, Mass.). Tissue sections were an analyzed by imaging MALDI MS, providing signal intensities (and not absolute quantitation), followed by cresyl violet staining for histological interrogation.
For MALDI MAS analysis, a 40 mg/mL solution of 2,5-dihydroxybenzoic acid (Sigma-Aldrich, St. Louis, Mo.) was prepared in methanol:water (70:30 v/v). […] Matrix solution was homogenously spray-coated onto the tissue using a HTX TM-Sprayer (HTX technologies. Chapel Hill, N.C.). Matrix-coated tissue sections were transferred to the MALDI mass spectrometer (SolariX 7T FT-ICR, Bruker Daltonics, Bremen, Germany) for imaging analysis. […] Laser intensity and number of shots were optimized for sensitivity of the parent drug (1200 shots) with ion detection collected over the mass range of m/z 150-3000.
Following completion of the imaging experiments, matrix coaling was removed by rinsing the glass slide in 100% methanol for 30 seconds or until the entire matrix was visibly removed. […] Microscope images were obtained on an Olympus BX51 (Tokyo, Japan) at 10× magnification and stitched using MicroSuite Analytical v3.0 software (Olympus, Tokyo, Japan). Subsequently, stained images were co-registered to the optical images in FlexImaging for visualization and annotation of tumor and non-tumor regions for the drug images.
To assess drug distribution, imaging MALDI MS data from U87 and GS2 tumor models were co-registered to the cresyl violet stained microscope images in FlexImaging Regions of interest (ROIs) that were selected based on the anatomical features defined in the histological image including tumor and non-tumor regions. Drug intensity for each pixel within the defined ROI was extracted and exported. […] Histogram plots were created in GraphPad Prism 5 to visualize the distribution of pixel intensity frequencies.

## CS(=O)(=O)N1CCN(Cc2cc3nc(-c4cccc5[nH]ncc45)nc(N4CCOCC4)c3s2)CC1 [pictilisib, reference compound]
  distribution of signal intensities in the U87 tumor (MALDI): concentrated in the low intensity bins
